Measurements as given in patent EP2380575B1, “Eslicarbazepine acetate and use” (Bial-Portela & CA, S.A., priority 2005, dated 2006).
Where two headings read alike, the source gives them in different places.

Tests used:
[1] = Trial B: pharmacokinetics following single and repeated doses in healthy young male subjects; type: in vivo, humans; settings: for AUC(0-t) / half-life / Cmax / Tmax: male, human, oral; for AUC(0-t): read-out: Mean AUC0-24h (%CV); for half-life: read-out: Mean apparent t½ (%CV) (converted); for Cmax: read-out: Mean Cmax (%CV)
Method: The study integrated the results of three double-blind, randomized, placebo-controlled trials. To measure the pharmacokinetics of eslicarbazepine acetate following single doses, oral single doses of eslicarbazepine acetate ranging from 20 mg to 2400 mg were administered to healthy young male subjects (6 subjects per dose). The pharmacokinetics of eslicarbazepine acetate following repeated doses were measured by administering repeated oral doses ranging from 400 mg to 2400 mg of eslicarbazepine acetate to healthy young male subjects (6 subjects per dose) over a period of 8 days. Analytical test methods and experimental procedures were similar to those described for Trial A above.

clinical = settings: both, human, plasma, po, 900 mg
Method: (§1) This human pharmacology trial was a study to investigate the steady-state pharmacokinetics of once-daily and twice-daily regimens of eslicarbazepine acetate in healthy subjects. […] On each of the treatment periods the volunteers received either a daily oral dose of eslicarbazepine acetate 900 mg once-daily (o.d.) or eslicarbazepine acetate 450 mg twice-daily (b.i.d.).
(§2) Blood samples were drawn either by direct venipuncture or via an intravenous catheter into lithium heparin tubes and centrifuged at approximately 1500 g for 10 minutes at 4°C. The resulting plasma was separated into 2 equal aliquots of 1 mL and stored at -20°C until required for analysis.
(§3) Plasma concentrations of eslicarbazepine acetate, eslicarbazepine, and R-licarbazepine were determined using isocratic liquid chromatography (LC) with single quadrupole mass spectrometric detection (MS).
(§4) The method involved the addition of 500 µL of approximately 0.5 µg/mL of 10,11-dihydrocarbamazepine (internal standard prepared in acetonitrile:water, 3:97, v:v) to 250 µL of plasma (centrifuged at 1800 rpm, prior to analysis) in a polypropylene tube. After vortex mixing for 10 seconds, the mixture was transferred to a Schleicher and Schuell C18/100 mg 96 well solid phase extraction plate. Each well was preconditioned with 800 µL methanol, followed by 800 µL acetonitrile and 800 µL acetonitrile:water (3:97, v:v) prior to application of the total sample volume. Each polypropylene tube was then washed with 500 µL acetonitrile:water (3:97, v:v) and the washings transferred to the respective well. The compounds were eluted into a collection plate with 750 µL acetonitrile and the extract evaporated to dryness under oxygen-free nitrogen, at 40°C. All solid phase extraction manipulations were undertaken using the Tomtec QUADRA 96® Model 320 system and a vacuum was applied at each elution step. The final extract was reconstituted in 100 µL of water:methanol (90:10, v:v) and mixed. The collection plate was then centrifuged at approximately 3000 rpm (at approximately 4°C, for approximately 10 minutes) prior to analysis. An aliquot of the final extract (10 µL) was injected onto the LC-MS system.
(§5) The LC-MS system used in the analysis consisted of a Perkin Elmer series 200 micro pump, a Perkin Elmer series 200 autosampler, and a Perkin Elmer/Sciex API 150EX single quadrupole mass spectrometer fitted with a Turbo IonSpray® source.
(§6) The pharmacokinetic parameters were derived from non-compartmental analysis using WinNonlin (Version 4.0, Pharsight Corporation, Mountain View, California).
(§7) Actual sampling times were used for the pharmacokinetic analysis. […] All calculations were made using raw data.
(§8) Summary statistics for each group and schedule sampling time were reported, as appropriate, using the geometric mean, arithmetic mean, standard deviation (SD), coefficient of variation (CV), median, minimum, and maximum. […] All tests of significance were performed at the p=0.05 level. The statistical package SAS (Version 8.2, SAS Institute Inc, Cary, NC) was used.

[2] = for share of total systemic drug exposure (as assessed by AUC0-24): 8 days multiple administration
Method: as §1, §2, §3, §4, §5, §6, §7, §8

[3] = in vivo, 50 mg, single dose 50 mg eslicarbazepine acetate, n=6
[4] = in vivo, 100 mg, single dose 100 mg eslicarbazepine acetate, n=6
[5] = in vivo, 200 mg, single dose 200 mg eslicarbazepine acetate, n=6
[6] = in vivo, 400 mg, last dose of 8-day repeated 400 mg o.d. eslicarbazepine acetate, n=6
[7] = in vivo, 400 mg, single dose 400 mg eslicarbazepine acetate, n=6
[8] = in vivo, 600 mg, single dose 600 mg eslicarbazepine acetate, n=6
[9] = in vivo, 800 mg, last dose of 8-day repeated 800 mg o.d. eslicarbazepine acetate, n=6
[10] = in vivo, 900 mg, single dose 900 mg eslicarbazepine acetate, n=6
[11] = in vivo, 1200 mg, last dose of 8-day repeated 1200 mg o.d. eslicarbazepine acetate, n=6
[12] = in vivo, 1200 mg, single dose 1200 mg eslicarbazepine acetate, n=6
[13] = in vivo, 1800 mg, last dose of 8-day repeated 1800 mg o.d. eslicarbazepine acetate, n=6
[14] = in vivo, 2400 mg, last dose of 8-day repeated 2400 mg o.d. eslicarbazepine acetate, n=6
[15] = plasma, 20 mg, single dose 20 mg eslicarbazepine acetate, n=6
[16] = plasma, 1800 mg, single dose 1800 mg eslicarbazepine acetate, n=6
[17] = plasma, 2400 mg, single dose 2400 mg eslicarbazepine acetate, n=6
[18] = multiple oral dose of 900 mg eslicarbazepine acetate once-daily, last dose, arithmetic mean
[19] = multiple oral dose of 900 mg eslicarbazepine acetate twice-daily (as titled), last dose, arithmetic mean
[20] = multiple oral dose of 900 mg eslicarbazepine acetate twice-daily (as titled), last dose, arithmetic mean, listed as Eslicarbazepine

mean AUC0-24h ([1]; 400 mg once-daily doses of eslicarbazepine acetate): 126 µg·h/mL
mean AUC0-24h ([1]; 2400 mg once-daily doses of eslicarbazepine acetate): 906 µg·h/mL
Median tmax (range) ([1]; last dose of 8-day repeated 400 mg o.d. eslicarbazepine acetate, n=6): 3 (0.5-7) h
Median tmax (range) ([1]; last dose of 8-day repeated 800 mg o.d. eslicarbazepine acetate, n=6): 3.5 (1-7) h
Median tmax (range) ([1]; last dose of 8-day repeated 1200 mg o.d. eslicarbazepine acetate, n=6): 3 (0.5-6) h
Median tmax (range) ([1]; last dose of 8-day repeated 1800 mg o.d. eslicarbazepine acetate, n=6): 2 (0.5-4) h
Median tmax (range) ([1]; last dose of 8-day repeated 2400 mg o.d. eslicarbazepine acetate, n=6): 2 (1.5-8) h
mean Cmax ([1]; last dose, repeated once daily 400 mg doses of eslicarbazepine acetate): 8,800 ng/ML
mean Cmax ([1]; last dose, repeated once daily 2400 mg doses of eslicarbazepine acetate): 56,500 ng/ML
AUC(0-t) [1, 3]: 6.7 µg·h/mL
half-life [1, 3]: 8.1 h
AUC(0-t) [1, 4]: 16.4 µg·h/mL
Cmax [1, 4]: 1500 ng/mL
half-life [1, 4]: 9.3 h
AUC(0-t) [1, 5]: 30.5 µg·h/mL
Cmax [1, 5]: 2900 ng/mL
half-life [1, 5]: 8.4 h
AUC(0-t) [1, 6]: 126 µg·h/mL
Cmax [1, 6]: 8800 ng/mL
half-life [1, 6]: 9.5 h
AUC(0-t) [1, 7]: 81.5 µg·h/mL
Cmax [1, 7]: 5200 ng/mL
half-life [1, 7]: 11.7 h
AUC(0-t) [1, 8]: 120 µg·h/mL
Cmax [1, 8]: 8500 ng/mL
half-life [1, 8]: 12.3 h
AUC(0-t) [1, 9]: 268 µg·h/mL
Cmax [1, 9]: 18700 ng/mL
half-life [1, 9]: 12.3 h
AUC(0-t) [1, 10]: 210 µg·h/mL
Cmax [1, 10]: 15000 ng/mL
half-life [1, 10]: 16.3 h
AUC(0-t) [1, 11]: 423 µg·h/mL
Cmax [1, 11]: 25500 ng/mL
half-life [1, 11]: 13.1 h
AUC(0-t) [1, 12]: 286 µg·h/mL
Cmax [1, 12]: 18600 ng/mL
half-life [1, 12]: 16.5 h
AUC(0-t) [1, 13]: 740 µg·h/mL
Cmax [1, 13]: 47700 ng/mL
half-life [1, 13]: 11.3 h
AUC(0-t) [1, 14]: 906 µg·h/mL
Cmax [1, 14]: 56500 ng/mL
half-life [1, 14]: 10.4 h
Tmax ([1]; in vivo, single dose 50 mg eslicarbazepine acetate, n=6, read-out: Median tmax (range)): 0.8 h
Tmax ([1]; in vivo, single dose 100 mg eslicarbazepine acetate, n=6, read-out: Median tmax (range)): 1.5 h
Tmax ([1]; in vivo, single dose 200 mg eslicarbazepine acetate, n=6, read-out: Median tmax (range)): 1.5 h
Tmax ([1]; in vivo, single dose 400 mg eslicarbazepine acetate, n=6, read-out: Median tmax (range)): 4 h
Tmax ([1]; in vivo, single dose 600 mg eslicarbazepine acetate, n=6, read-out: Median tmax (range)): 4 h
Tmax ([1]; in vivo, single dose 900 mg eslicarbazepine acetate, n=6, read-out: Median tmax (range)): 2.3 h
Tmax ([1]; in vivo, single dose 1200 mg eslicarbazepine acetate, n=6, read-out: Median tmax (range)): 4 h
AUC(0-t) [1, 15]: 2.4 µg·h/mL
Cmax [1, 15]: 300 ng/mL
half-life [1, 15]: 9.1 h
Cmax ([1]; plasma, 50 mg, single dose 50 mg eslicarbazepine acetate, n=6): 900 ng/mL
AUC(0-t) [1, 16]: 508 µg·h/mL
Cmax [1, 16]: 34600 ng/mL
half-life [1, 16]: 11.8 h
AUC(0-t) [1, 17]: 0.446 µg·h/mL
Cmax [1, 17]: 35900 ng/mL
half-life [1, 17]: 11.1 h
Tmax ([1]; plasma, last dose, repeated once daily, all dosages, read-out: median tmax): 2 to 3.5 h
Tmax ([1]; plasma, single dose 20 mg eslicarbazepine acetate, n=6, read-out: Median tmax (range)): 0.8 h
Tmax ([1]; plasma, single dose 1800 mg eslicarbazepine acetate, n=6, read-out: Median tmax (range)): 3.5 h
Tmax ([1]; plasma, single dose 2400 mg eslicarbazepine acetate, n=6, read-out: Median tmax (range)): 3 h
AUC(0-inf) (clinical): 389 µg·h/mL
AUC(0-t) (clinical): 382 µg·h/mL
Cmax (clinical): 22200 ng/mL
Tmax (clinical): 2.45 h
half-life (clinical): 9.12 h
total exposure in the once-daily group higher than in the twice-daily group ([2]; healthy volunteers, 900 mg daily): at least 26%
Tmax ([2]; multiple oral dose of 900 mg eslicarbazepine acetate once-daily, last dose): 2.45 h
AUC(0-t) [2, 18]: 381601 ng·h/mL
Cmax [2, 18]: 22210 ng/mL
AUC0-τ ([2]; multiple oral dose of 900 mg eslicarbazepine acetate once-daily, last dose, dosing interval 24 hours): 294.019 µg·h/mL
Tmax ([2]; multiple oral dose of 900 mg eslicarbazepine acetate twice-daily (as titled), last dose): 2.09 h
AUC0-∞ [2, 19]: 289.792 µg·h/mL
AUC(0-t) [2, 19]: 283,014 ng·h/mL
Cmax [2, 19]: 16,667 ng/mL
t1/2 [2, 19]: 9.17 h
AUC(0-t) [2, 20]: 283014 ng·h/mL
Cmax [2, 20]: 16667 ng/mL
AUC0-τ ([2]; multiple oral dose of 900 mg eslicarbazepine acetate twice-daily (as titled), last dose, dosing interval 12 hours): 142.08 µg·h/mL
share of total systemic drug exposure (as assessed by AUC0-24) ([2]; once-daily subjects): approximately 95%
share of total systemic drug exposure (as assessed by AUC0-24) ([2]; twice-daily subjects): ~96%
Structure (SMILES): NC(=O)N1c2ccccc2C[C@H](O)c2ccccc21 [eslicarbazepine]
